Measurements as given in patent US9120779B2, “Inhibitors of HCV NS5A” (PRESIDIO PHARMACEUTICALS, INC., priority 2008, dated 2015).
Where two headings read alike, the source gives them in different places.

System: HCV genotype 1b replicon in Huh 7 cells
Assay: HCV replicon assay (luciferase readout, 1b_Huh-Luc/Neo-ET cell line)
Format: cell-based
Experimental: Biological activity of the compounds of the invention was determined using an HCV replicon assay. The 1b_Huh-Luc/Neo-ET cell line persistently expressing a bicistronic genotype 1b replicon in Huh 7 cells was obtained from R^eBLikon GMBH. This cell line was used to test compound inhibition using luciferase enzyme activity readout as a measurement of compound inhibition of replicon levels.
On Day 1 (the day after plating), each compound is added in triplicate to the cells. Plates incubated for 72 h prior to running the luciferase assay. Enzyme activity was measured using a Bright-Glo Kit (cat. number E2620) manufactured by Promega Corporation. The following equation was used to generate a percent control value for each compound. % Control=(Average Compound Value/Average Control)*100
The EC50 value was determined using GraphPad Prism and the following equation: Y=Bottom+(Top−Bottom)/(1+10^((Log IC50−X)*HillSlope))
EC50 values of compounds are repeated several times in the replicon assay.
Example compounds of the disclosed invention are illustrated in Tables 1-9 attached as appendices. The tables show inhibitory activity of many of the example compounds with respect to HCV 1b. […] The tables further provide mass spectrometry results for the synthesized example compounds.

[1] = Hepatitis C virus, Huh-7, 72 h, read-out: Inhibition of HCV genotype 1b, Table 4, 72 h incubation
[2] = Hepatitis C virus, Huh-7, 72 h, read-out: Inhibition of HCV genotype 1b, Table 5, 72 h incubation
[3] = Hepatitis C virus, Huh-7, 72 h, read-out: Inhibition of HCV genotype 1b, Table 3, 72 h incubation
[4] = Hepatitis C virus, Huh-7, 72 h, read-out: Inhibition of HCV genotype 1b, Table 1, 72 h incubation

COC(=O)N[C@H](C(=O)N1CCC[C@H]1c1nc2ccc(-c3ccc(-c4ccc5nc([C@@H]6CCCN6C(=O)[C@@H](NC(=O)OC)[C@@H](C)O)[nH]c5c4)cc3)cc2[nH]1)[C@@H](C)O [compound 557]
EC50 [1]: < 1 nM

COC(=O)N[C@@H](CC(C)C)C(=O)N1CCC[C@H]1c1ncc(-c2ccc(C34CCC(c5cnc([C@@H]6CCCN6C(=O)[C@@H](NC(=O)OC)C(C)C)[nH]5)(CC3)CC4)cc2)[nH]1 [compound 2072]
EC50 [2]: < 1 nM

O=C(N[C@@H](C(=O)N1CCC[C@H]1c1ncc(-c2cc(F)c(N3CCC(c4cnc([C@@H]5CCCCN5C(=O)[C@H](NC(=O)C5CC5)c5ccccc5)[nH]4)CC3)c(F)c2)[nH]1)c1ccccc1)C1CC1 [compound 484]
EC50 [3]: < 1 nM

COC(=O)N[C@H](C(=O)N1CCC[C@H]1c1ncc(C23CCC(c4ccc(-c5cnc([C@@H]6CCCN6C(=O)[C@@H](NC(=O)N6CCC(=O)CC6)C(C)C)[nH]5)cc4)(CC2)CC3)[nH]1)C(C)C [compound 650]
EC50 [2]: 1 to 9.9 nM

COC(=O)N[C@H](C(=O)N1CCC[C@H]1c1nc2ccc(-c3ccc(-c4ccc5nc([C@H](C)NC(=O)[C@@H](c6ccccc6)N(C)C)[nH]c5c4)cc3)cc2[nH]1)C(C)C [compound 939]
EC50 [1]: < 1 nM

CN(C)[C@@H](C(=O)N1CCC[C@H]1c1ncc(C2CCC(c3ccc(-c4cnc([C@@H]5CCCN5C(=O)[C@H](NC(=O)C5CC5)c5ccccc5)[nH]4)cc3)CC2)[nH]1)c1ccccc1 (stereo partly drawn) [compound 380]
EC50 [4]: < 1 nM

CC(C)[C@H](NC(=O)OC(C)(C)C)C(=O)N1CCC[C@H]1c1ncc(-c2ccc([C@H]3CC[C@@H](c4cnc([C@@H]5CCCN5C(=O)[C@@H](NC(=O)OC(C)(C)C)C(C)C)[nH]4)CC3)cc2)[nH]1 [compound 384]
EC50 [4]: 10 to 999 nM

COC(=O)N[C@H](C(=O)N1CCC[C@H]1c1nc2ccc(-c3ccc(-c4ccc5nc([C@@H]6CCCN6C(=O)[C@H](C(C)C)N(C)C)[nH]c5c4)cc3)cc2[nH]1)C(C)C [compound 933]
EC50 [1]: < 1 nM

COC(=O)N[C@H](C(=O)N1CCC[C@H]1c1ncc(-c2ccc([C@H]3CC[C@H](c4cnc([C@@H]5CCCN5C(=O)[C@@H](NC(=O)OC)C(C)C)[nH]4)CC3)cc2)[nH]1)C(C)C [compound 381]
EC50 [4]: < 1 nM

COC(=O)N[C@H](C(=O)N[C@@H](C)c1ncc(-c2ccc(C34CCC(c5cnc([C@@H]6CCCN6C(=O)[C@H](C(C)C)N(C)C)[nH]5)(CC3)CC4)cc2)[nH]1)C(C)C [compound 2078]
EC50 [2]: < 1 nM

COC(=O)N[C@@H](C(=O)N[C@@H](C)c1ncc(C2CCN(c3c(F)cc(-c4cnc([C@@H]5CCCN5C(=O)[C@H](NC(=O)OC)c5ccccc5)[nH]4)cc3F)CC2)[nH]1)c1ccccc1 [compound 517]
EC50 [3]: < 1 nM

CCC(C)[C@H](NC(=O)OC)C(=O)N1CCC[C@H]1c1ncc(-c2ccc(C34CCC(c5cnc([C@@H]6CCCN6C(=O)[C@@H](NC(=O)OC)C(C)CC)[nH]5)(CC3)CC4)cc2)[nH]1 (stereo partly drawn) [compound 2092]
EC50 [2]: < 1 nM

CC(C)[C@@H](NC(=O)OC(C)(C)C)C(=O)N1CCC[C@H]1c1ncc(-c2ccc(C3CCC(c4cnc([C@@H]5CCCN5C(=O)[C@H](NC(=O)OC(C)(C)C)C(C)C)[nH]4)CC3)cc2)[nH]1 (stereo partly drawn) [compound 366]
EC50 [4]: 10 to 999 nM

O=C(N[C@H]1CC[C@@H](c2ccc(-c3cnc([C@@H]4CCCN4C(=O)[C@H](NC(=O)N4CCOCC4)c4ccccc4)[nH]3)cc2)CC1)[C@@H]1CCCN1C(=O)[C@H](NC(=O)N1CCOCC1)c1ccccc1 [compound 355]
EC50 [4]: 1 to 9.9 nM

COC(=O)N[C@@H](C(=O)N1CCC[C@H]1c1ncc(-c2ccc(C34CCC(c5cnc([C@@H]6CCCN6C(=O)[C@@H](c6ccccc6)N6CCOCC6)[nH]5)(CC3)CC4)cc2)[nH]1)c1ccccc1 [compound 611]
EC50 [2]: < 1 nM

COC(=O)N[C@H](C(=O)N1CCC[C@H]1c1ncc(-c2ccc(C34CCC(c5cnc([C@@H]6CCCN6C(=O)[C@@H](C(C)C)N(C)C)[nH]5)(CC3)CC4)cc2)[nH]1)C(C)C [compound 2057]
EC50 [2]: < 1 nM

CCOC(=O)N[C@@H](C(=O)N1CCC[C@H]1c1ncc(C2CCN(c3c(F)cc(-c4cnc([C@@H]5CCCN5C(=O)[C@H](NC(=O)OC)c5ccccc5)[nH]4)cc3F)CC2)[nH]1)c1ccccc1 [compound 476]
EC50 [3]: < 1 nM

COC(=O)N[C@@H](C(=O)N1CCC[C@H]1c1ncc(-c2ccc([C@H]3CC[C@H](NC(=O)[C@@H]4CCCN4C(=O)[C@H](NC(=O)N4CCOCC4)c4ccccc4)CC3)cc2)[nH]1)c1ccccc1 [compound 369]
EC50 [4]: 1 to 9.9 nM

COC(=O)N[C@@H](C(=O)N1CCC[C@H]1c1ncc(-c2cc(F)c(N3CCC(c4cnc([C@@H]5CCCN5C(=O)[C@@H](c5ccccc5)N5CCCC5)[nH]4)CC3)c(F)c2)[nH]1)c1ccccc1 [compound 475]
EC50 [3]: < 1 nM

COC(=O)N[C@H](C(=O)N1CCC[C@H]1c1ncc(C23CCC(c4ccc5c(c4)nc([C@@H]4CCCN4C(=O)[C@@H](NC(=O)OC)C(C)C)n5C)(CC2)CC3)[nH]1)C(C)C [compound 2116]
EC50 (Hepatitis C virus, Huh-7, 72 h, read-out: Inhibition of HCV genotype 1b, Table 8, 72 h incubation): 10 to 999 nM

COC(=O)N[C@@H](C(=O)N1CCC[C@H]1c1ncc(-c2cc(F)c(N3CCC(c4cnc([C@@H]5CCCN5C(=O)[C@H](NC(=O)N5CCOCC5)c5ccccc5)[nH]4)CC3)c(F)c2)[nH]1)c1ccccc1 [compound 473]
EC50 (read-out: Inhibition of HCV genotype 1b, Table 3, 72 h incubation): < 1 nM

COC(=O)N[C@H](C(=O)N1CCC[C@H]1c1ncc(-c2ccc(C34CCC(c5cnc([C@H](C)NC(=O)[C@H](NC(=O)OC)c6ccccc6)[nH]5)(CC3)CC4)cc2)[nH]1)C(C)C [compound 2104]
EC50 [2]: < 1 nM

COC(=O)N[C@H](C(=O)N1CCC[C@H]1c1ncc(C23CCC(c4ccc(-c5cnc([C@@H]6CCCN6C(=O)[C@H](NC(=O)N6CCC(O)CC6)c6ccccc6)[nH]5)cc4)(CC2)CC3)[nH]1)C(C)C [compound 2101]
EC50 [2]: < 1 nM

CC(C)(C)OC(=O)N[C@@H](C(=O)N1CCC[C@H]1C(=O)NC1CCC(c2ccc(-c3cnc([C@@H]4COCCN4C(=O)[C@H](NC(=O)OC(C)(C)C)c4ccccc4)[nH]3)cc2)CC1)c1ccccc1 (stereo partly drawn) [compound 368]
EC50 [4]: < 1 nM

COC(=O)N[C@H](Cc1ccccc1)C(=O)N1CCC[C@H]1c1ncc(C2CCC(c3ccc(-c4cnc([C@@H]5CCCN5C(=O)[C@@H](c5ccccc5)N5CCCC5)[nH]4)cc3)CC2)[nH]1 (stereo partly drawn) [compound 375]
EC50 [4]: < 1 nM

COC(=O)N[C@H](C(=O)N(C)[C@@H](C)c1ncc(C2CCN(c3c(F)cc(-c4cnc([C@@H]5CCCN5C(=O)[C@@H](NC(=O)OC)C(C)C)[nH]4)cc3F)CC2)[nH]1)C(C)C [compound 505]
EC50 [3]: < 1 nM

COC(=O)N[C@@H](C(=O)N1CCC[C@H]1c1cnc(N2CCN(c3ccc(-c4cnc([C@@H]5CCCN5C(=O)[C@H](NC(=O)OC)c5ccccc5)[nH]4)cc3)C(=O)C2)[nH]1)c1ccccc1 [compound 2113]
EC50 (Hepatitis C virus, Huh-7, 72 h, read-out: Inhibition of HCV genotype 1b, Table 7, 72 h incubation): < 1 nM

COC(=O)N[C@@H](C(=O)N1CCC[C@H]1c1ncc(-c2cc(F)c(N3CCC(c4cnc([C@@H]5COCCN5C(=O)[C@H](NC(=O)OC)c5ccccc5)[nH]4)CC3)c(F)c2)[nH]1)c1ccccc1 [compound 492]
EC50 [3]: < 1 nM

COC(=O)N[C@H](C(=O)N1CCC[C@H]1c1nc2ccc(-c3ccc(-c4ccc5nc([C@@H]6CCCN6C(=O)[C@@H](C(C)C)N(C)C)[nH]c5c4)cc3)cc2[nH]1)C(C)C [compound 934]
EC50 [1]: < 1 nM

COC(=O)N[C@H](C(=O)N1CCC[C@H]1c1ncc(-c2ccc(-c3ccc4nc([C@@H]5CCCN5C(=O)[C@@H](NC(=O)OC)C(C)C)[nH]c4c3)cc2)[nH]1)C(C)C [compound 403]
EC50 (Hepatitis C virus, Huh-7, 72 h, read-out: Inhibition of HCV genotype 1b, Table 2, 72 h incubation): < 1 nM

COC(=O)N[C@H](C(=O)N1CCC[C@H]1c1ncc(-c2ccc(C34CCC(c5cnc([C@@H]6CCCN6C(=O)[C@H](C(C)C)N6CCC(O)CC6)[nH]5)(CC3)CC4)cc2)[nH]1)C(C)C [compound 2058]
EC50 [2]: < 1 nM

O=C(N[C@@H](C(=O)N1CCC[C@H]1c1ncc(-c2cc(F)c(N3CCC(c4cnc([C@@H]5COCCN5C(=O)[C@@H](c5ccccc5)N5CCCCC5)[nH]4)CC3)c(F)c2)[nH]1)c1ccccc1)C1CC1 [compound 495]
EC50 [3]: < 1 nM

COC(=O)N[C@@H](C(=O)N1CCC[C@H]1c1ncc(-c2cc(F)c(N3CCC(c4cnc([C@@H]5CCCN5C(=O)[C@H](NC(=O)OC)C(C)C)[nH]4)CC3)c(F)c2)[nH]1)C(C)C [compound 498]
EC50 [3]: 1 to 9.9 nM

O=C(NC1CCC(c2ccc(-c3cnc([C@@H]4COCCN4C(=O)C(NC(=O)N4CCOCC4)c4ccccc4)[nH]3)cc2)CC1)[C@@H]1CCCN1C(=O)C(NC(=O)N1CCOCC1)c1ccccc1 (stereo partly drawn) [compound 372]
EC50 [4]: 1 to 9.9 nM

O=C(N[C@@H](C(=O)N1CCC[C@H]1c1ncc(-c2ccc(C34CCC(c5cnc([C@@H]6CCCN6C(=O)[C@H](NC(=O)C6CC6)c6ccccc6)[nH]5)(CC3)CC4)cc2)[nH]1)c1ccccc1)C1CC1 [compound 607]
EC50 [2]: < 1 nM

CC(C)(C)OC(=O)N[C@@H](C(=O)N1CCOC[C@H]1c1ncc(-c2cc(F)c(N3CCC(c4cnc([C@@H]5CCCN5C(=O)[C@H](NC(=O)OC(C)(C)C)c5ccccc5)[nH]4)CC3)c(F)c2)[nH]1)c1ccccc1 [compound 508]
EC50 [3]: < 1 nM
